# How the values were obtained:
# whole vines in vineyards = assay: Overall bud break in vineyards, summary over the examples; assay type: in vivo, grapevine; conditions: spur pruned vineyard in region with higher chilling (FIG. 19, Example 17)
# [1] = system: grapevine buds (cuttings, whole vine); conditions: cited from earlier work
# [2] = system: berries of cv. Early Sweet vines; assay: TSS (sugar) level of berries of treated vines; assay type: in vivo, Vitis vinifera; conditions: Example 3, FIG. 4; 6% DADS with 2% Armobreak®; Brix meter; versus control and HC
# cv. Early Sweet vines [3] = assay: Bud break on whole vines, greenhouse in Argaman, Jordan Valley; assay type: in vivo, Vitis vinifera; conditions: Example 21, FIGS. 23A, 23B; 6% DADS alone (DADS 6% control); natural bud break about 25-45%
# [4] = system: corms, tubers and apple buds; conditions: cited from earlier work
# [5] = system: Vitis vinifera cv. Early Sweet single-node cuttings; assay: Bud break on grapevine single-node cuttings in growth chamber; assay type: in vivo
# cv. Early Sweet vines [6] = assay: Bud break on whole vines in a vineyard, Jordan Valley (spur pruning, hot winter); assay type: in vivo, Vitis vinifera; conditions: Example 2, FIG. 2, negative control Triton, positive control 5% HC
smiles,measurement,setting,value
"N#CN [HC, hydrogen cyanamide]",bud break,whole vines in vineyards,a milder effect or no effect
"C=CCSSCC=C [DADS, diallyl disulfide]",bud break enhancing effect,"[1]; applied to the whole vine, rather than to cuttings",very limited and inferior to the known HC
same,grapevine bud break enhancement among garlic volatile compounds,[1]; volatile compounds containing sulfur and allyl groups,particularly effective
same,TSS levels of the berries (ripening),[2],increase the total soluble solids (TSS) level of the berries in comparison to the control
same,bud break,cv. Early Sweet vines [3],results within the range of the natural bud break
same,bud break,[4],"enhanced bud break of corms, tubers and apple buds"
same,bud break,"[5]; Example 1, FIG. 1, 1% DADS sprayed with 0.02% Triton X-100, compared with 0.1%, 5% and 10% DADS",best result
same,bud break,"[5]; Example 1, FIG. 1, 5% DADS sprayed with 0.02% Triton X-100, control 0.02% Triton X-100 only, 22° C., monitored to day 28",toxic and actually inhibit bud break
same,bud break,"[5]; Example 1, FIG. 1, 10% DADS sprayed with 0.02% Triton X-100, control 0.02% Triton X-100 only, monitored to day 28",toxic and actually inhibit bud break
same,bud break,cv. Early Sweet vines [6]; 2% DADS with 0.02% Triton X-100,no effect
same,bud break,cv. Early Sweet vines [6]; 4% DADS with 0.02% Triton X-100,slight enhancement in bud break in comparison to the negative control
"C=CCSCC=C [DAS, Diallyl Sulfide]",bud break,"[5]; Example 5, FIG. 7, higher concentrations of DAS (0.1%, 1%, 5% tested) with 2% Armobreak®, control 2% Armobreak®",may reduce bud breaking
same,bud break,"[5]; Example 5, FIG. 7, relatively low concentrations of DAS (0.1%, 1%, 5% tested) with 2% Armobreak®, control 2% Armobreak®",enhance bud breaking in grapevine cuttings

# Source: patent US11213027B2, “Combined administration of a penetration agent and a sulfur containing compound to plants” (THE STATE OF ISRAEL, MINISTRY OF AGRICULTURE & RURAL …, priority 2016, dated 2022)
